Assay results as given in ChEMBL document CHEMBL1124922 (J Med Chem, 1990).

Tests used:
[1] = Evaluated for cytotoxicity under aerobic conditions against AA8 cells using microassay; assay type: cell-based; settings: Cricetulus griseus, CHO-AA8
Cricetulus griseus = organism: Cricetulus griseus; test: Evaluated for hypersensitivity factor (HF) (HF = IC50 AA8 / IC50 UV-4) values are intra experiment ratios; assay type: functional
[2] = Evaluated for cytotoxicity under aerobic conditions against UV4 cells using microassay; assay type: cell-based; settings: Cricetulus griseus

| SMILES | IC50 [1] [µM] | Ratio (Cricetulus griseus) | IC50 [2] [µM] |
| --- | --- | --- | --- |
| O=[N+]([O-])c1cccc(N(CCO)CCO)c1 | 3060 |  |  |
| O=[N+]([O-])c1ccc(N(CCO)CCO)cc1 | 3200 |  |  |
| O=[N+]([O-])c1ccccc1N(CCO)CCO | 7970 |  |  |
| CS(=O)(=O)OCCN(CCOS(C)(=O)=O)c1ccc([N+](=O)[O-])cc1 |  | > 1 | 1.39 |
| CS(=O)(=O)OCCN(CCOS(C)(=O)=O)c1ccccc1 | 13.6 | 30 | 0.59 |
